Here are results for three molecules from US20050148656A1, “Carboxylic derivates” (priority 2003, published 2005).

pEC50: −log10 of the molar value.

In one test the test system is PPARγ. The test can be described thus: Luciferase reporter assay in transiently transfected cells, PPARγ activation. In kind it is cell-based, human and murine. As to the method:
(§1) The compounds of the invention were tested in the assays described in WO 03/051821.
(§2) Stock solutions of compounds in DMSO were diluted in appropriate concentration ranges in master plates. From master plates, compounds were diluted in culture media to obtain test compound solutions for final doses.
(§3) After adjustment of the amount of cell medium to 75 μl in each well, 50 μl test compound solution was added. Transiently transfected cells were exposed to compounds for about 24 hours before the luciferase detection assay was performed. For luciferase assays, 100 μl of assay reagent was added manually to each well and plates were left for approximately 20 minutes in order to allow lysis of the cells. After lysis, luciferase activity was measured in a 1420 Multiwell counter, Victor, from Wallach.
(§4) The TZD pioglitazone was used as reference substance for activation of both human and murine PPARγ. 5,8,11,14-Eicosatetrayonic acid (ETYA) was used as reference substance for human PPARα.
(§5) For calculation of EC50 values, a concentration-effect curve was established. Values used were derived from the average of two or three independent measurements (after subtraction of the background average value) and were expressed as the percentage of the maximal activation obtained by the reference compound. Values were plotted against the logarithm of the test compound concentration. EC50 values were estimated by linear […] between the data points and calculating the concentration required to achieve 50% of the maximal activation obtained by the reference compound.

In a further test the target is T1, human PPARα (Homo sapiens, UniProt Q07869).
T1 construct: expressed in transfected cells
T1 sequence (Q07869 1-468): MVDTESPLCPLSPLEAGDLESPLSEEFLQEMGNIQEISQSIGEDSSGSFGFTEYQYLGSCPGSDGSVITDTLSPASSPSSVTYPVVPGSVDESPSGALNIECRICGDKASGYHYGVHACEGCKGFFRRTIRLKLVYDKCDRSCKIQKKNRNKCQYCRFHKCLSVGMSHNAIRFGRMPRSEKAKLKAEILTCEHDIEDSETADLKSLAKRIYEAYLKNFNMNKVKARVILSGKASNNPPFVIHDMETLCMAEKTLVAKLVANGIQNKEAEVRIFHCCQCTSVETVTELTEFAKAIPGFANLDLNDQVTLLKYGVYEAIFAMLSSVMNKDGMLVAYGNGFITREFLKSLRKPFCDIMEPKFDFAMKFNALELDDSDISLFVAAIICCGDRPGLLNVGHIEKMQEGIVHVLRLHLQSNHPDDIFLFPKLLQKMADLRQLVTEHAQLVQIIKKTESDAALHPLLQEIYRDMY
The test can be described thus: Luciferase reporter assay in transiently transfected cells, PPARα activation. The test is classed as cell-based. To be noted: 50% of maximal activation obtained by reference compound (ETYA); about 24 hours exposure. As to the method: as §1, §2, §3, §4, §5
A general note: Reporter assays use an easily measured gene product as a stand-in for the process of interest.

In the case of `CCO[C@@H](Cc1ccc(OCC(=O)N(Cc2ccc(C(F)(F)F)cc2)Cc2ccc(C(F)(F)F)cc2)cc1)C(=O)O` [Example 15, (2S)-3-[4-(2-{bis[4-(Trifluoromethyl)benzyl]amino}-2-oxoethoxy)phenyl]-2-ethoxypropanoic acid], the “ratio EC50 (PPARγ):EC50 (PPARα)” value in the test on PPARγ is reported as greater than 900. For the same molecule, on human PPARα, the pEC50 is 8.52.

`CCO[C@@H](Cc1ccc(OCC(=O)N(Cc2ccc(Cl)cc2)Cc2ccc(C(C)(C)C)cc2)cc1)C(=O)O` [Example 13, (2S)-3-(4-{2-[(4-tert-Butylbenzyl)(4-chlorobenzyl)amino]-2-oxoethoxy}phenyl)-2-ethoxypropanoic acid]: the “ratio EC50 (PPARγ):EC50 (PPARα)” value in the test on PPARγ is given as greater than 400. The pEC50 on human PPARα was 8.10.

In the case of `CCO[C@@H](Cc1ccc(OCC(=O)N(Cc2ccc(Cl)cc2)Cc2ccc(Cl)cc2)cc1)C(=O)O` [Example 12, (2S)-3-(4-{2-[bis(4-Chlorobenzyl)amino]-2-oxoethoxy}phenyl)-2-ethoxypropanoic acid], the “ratio EC50 (PPARγ):EC50 (PPARα)” value with PPARγ is greater than 1000. Moreover, the pEC50 at human PPARα was 8.52.

One may read the pEC50 as the EC50 on a negative log10 scale, so that one unit is a factor of ten. The low end stands for a high EC50, the high end for a low EC50.
